Experimental data reported in patent US9808469B2, “Antitumor activity of multi-kinase inhibitors in triple negative breast cancer” (ENTRECHEM, S.L, priority 2014, dated 2017).
Read-outs that look alike come from different tables or passages of the source.

Assays:
HS578T cells [1] = assay: MTT metabolization, inhibition of HS578T cell proliferation; type: cell-based; settings: Homo sapiens, Hs-578T, read-out: Percentage inhibition Formula (III) mean
Protocol: (§1) These triple negative breast cancer cell lines were obtained from the American Type Culture Collection Cell Biology Collection (ATCC) (Manassas, Va.). The medium was changed every 2 days.
(§2) Cell proliferation and growth experiments were carried out using 3-(4,5-dimethylthiazol-2-yl)-2,5-diphenyltetrazolium bromide (MTT) uptake assays, where MTT is reduced to purple formazan by the mitochondria of living cells. Increase in cell number is detected by augmented MTT metabolization, and decrease in cell number is reflected by a decrease. […] The cells were treated with the drug at different concentrations to plot the dose-response curves in all cancer cell lines using in the study. […] After treatment, each well was replaced with 250 μL of fresh medium containing MTT ([…]) and incubated for 1 hour. The medium was then removed and 500 μL of dimethyl sulfoxide was added to each well. The plate was agitated in the dark for 5 minutes to dissolve the MTT-formazan crystals. The absorbance of the samples was recorded at 562 nm in a multi-well plate reader (BMG labtech). Results were plotted as the mean values of quadruplicates from a representative experiment that was repeated at least two independent times.
(§3) Combination index values less than 1 indicate synergism, values equal to 1 indicate an additive effect, whereas values greater than 1 indicate antagonism. Combination index values from three independent experiments were generated.

HS578T cells [2] = assay: Western Blot of DNA damage and cell cycle markers; type: cell-based; settings: 500 nM, up to 24 h
Protocol: Western-blot and phospho-array kits were used for evaluation of signaling intermediates.
HS578T and BT549 cell lines were grown in DMEM 10% of FBS and at 70% confluence were treated with Formula (III) at 500 nM for 6, 12 and 24 hours. Cells were washed with phosphate-buffered saline (PBS) (137 mM NaCl, 2.7 mM KCl, 8 mM Na2HPO4, 1.5 mM KH2PO4) and lysed in ice-cold lysis buffer (20 mM Tris-HCl [pH 7.0], 140 mM NaCl, 50 mM EDTA, 10% glycerol, 1% Nonidet P-40, 1 μM pepstatin, 1 μg/mL aprotinin, 1 μg/mL leupeptin, 1 mM phenylmethyl sulfonyl fluoride, 1 mM sodium orthovanadate). Lysates were centrifuged at 10000 g at 4° C. for 10 minutes. The protein level in the supernatants was quantified using BCA protein assay (Sigma Aldrich). A total of 50 μg of protein of each sample was used for analysis. Samples were then boiled in electrophoresis sample buffer and placed on 6%-15% sodium dodecyl sulfate-polyacrylamide gel electrophoresis (SDS-PAGE) gels, depending on the molecular weight of the proteins to be analyzed. Briefly, after electrophoresis, proteins in gels were transferred to polyvinylidene difluoride membranes (Millipore Corporation). Membranes were blocked in Tris-buffered saline with Tween (TBST) (100 mM Tris [pH 7.5], 150 mM NaCl, 0.05% Tween 20) containing 1% of bovine serum albumin for 1 h and then incubated overnight with the corresponding antibody. Anti-pS473-AKT and anti-pT308-AKT were purchased from Santa Cruz; Anti-pS6, anti-pSTAT3 and anti-GADPH were purchased from Cell Signalling Technology; Anti-pH3, were purchased from Millipore-Cell Signaling; anti-p-H2AX were purchased from BD Biosciences. After washing with TBST, membranes were incubated with HRP-conjugated anti-mouse or anti-rabbit secondary antibodies (1:5000 dilution) for 1 hour and bands were visualized by using ECL Plus Western Blotting Detection System (GE Healthcare, Buckinghamshire, United Kingdom).

animal models = assay: Studies in animal models; settings: in vivo
BT-549 cells = assay: MTT metabolization, inhibition of BT-549 cell proliferation; type: cell-based; settings: Homo sapiens, read-out: Percentage inhibition Formula (III) mean
Protocol: as §1, §2, §3

MDA-MB-231 cells = assay: MTT metabolization, inhibition of MDA-MB-231 cell proliferation; type: cell-based; settings: Homo sapiens, read-out: Percentage inhibition Formula (III) mean
Protocol: as §1, §2, §3

For `C[C@]12O[C@H](C[C@@H](O)[C@H]1O)n1c3ccccc3c3c4c(c5c6ccccc6n2c5c31)C(=O)NC4=O` [Formula (III)], the percent inhibition of cell proliferation at 0.1 µM (HS578T cells [1]; Formula (III) 100 nM alone (Table 14)) was 76.2%, the percent inhibition of cell proliferation at 0.1 µM (HS578T cells [1]; Formula (III) 100 nM alone (Table 15)) was 93.5% and the percent inhibition of cell proliferation at 0.12 µM (HS578T cells [1]; Formula (III) 120 nM alone (Table 12)) was 74.9%. For the same compound, the percent inhibition of cell proliferation at 0.12 µM (HS578T cells [1]; Formula (III) 120 nM alone) was 74.9%, the percent inhibition of cell proliferation at 0.18 µM (HS578T cells [1]; Formula (III) 180 nM alone (Table 12)) was 67.5% and the percent inhibition of cell proliferation at 0.18 µM (HS578T cells [1]; Formula (III) 180 nM alone) was 67.5%. For the same compound, the percent inhibition of cell proliferation at 0.2 µM (HS578T cells [1]; Formula (III) 200 nM alone (Table 13)) was 67.8%, the percent inhibition of cell proliferation at 0.2 µM (HS578T cells [1]; Formula (III) 200 nM alone (Table 14)) was 72.4% and the percent inhibition of cell proliferation at 0.2 µM (HS578T cells [1]; Formula (III) 200 nM alone (Table 15)) was 77.6%. The percent inhibition of cell proliferation at 0.24 µM (HS578T cells [1]; Formula (III) 240 nM alone (Table 12)) was 50.8%, the percent inhibition of cell proliferation at 0.24 µM (HS578T cells [1]; Formula (III) 240 nM alone) was 50.8% and the percent inhibition of cell proliferation at 0.26 µM (HS578T cells [1]; Formula (III) 260 nM alone (Table 13)) was 59.9%. The percent inhibition of cell proliferation at 0.3 µM (HS578T cells [1]; Formula (III) 300 nM alone (Table 12)) was 46.8%, the percent inhibition of cell proliferation at 0.3 µM (HS578T cells [1]; Formula (III) 300 nM alone (Table 13)) was 52.2% and the percent inhibition of cell proliferation at 0.3 µM (HS578T cells [1]; Formula (III) 300 nM alone (Table 14)) was 66.3%. For the same compound, the percent inhibition of cell proliferation at 0.3 µM (HS578T cells [1]; Formula (III) 300 nM alone (Table 15)) was 72.3%, the percent inhibition of cell proliferation at 0.3 µM (HS578T cells [1]; Formula (III) 300 nM alone) was 46.8% and the percent inhibition of cell proliferation at 0.38 µM (HS578T cells [1]; Formula (III) 380 nM alone (Table 13)) was 48.9%. For the same compound, the percent inhibition of cell proliferation at 0.4 µM (HS578T cells [1]; Formula (III) 400 nM alone (Table 14)) was 57.4%, the percent inhibition of cell proliferation at 0.4 µM (HS578T cells [1]; Formula (III) 400 nM alone (Table 15)) was 66.6% and the “Cyclin B and p-Cdc2 levels” value (HS578T cells [2]) was “increase”. The “cyclin D and Cyclin A levels” value (HS578T cells [2]) was “down-regulated”, the “phosphorylated levels of γH2AX” value (HS578T cells [2]) was “increase in the phosphorylated levels of γH2AX in a time dependent manner” and the “phosphorylation of p53 and chk2” value (HS578T cells [2]) was “induced the phosphorylation of p53 and chk2”. The “toxicities in animal models” value (animal models) was “no evidence of toxicities”, the inhibition at 0.1 µM (BT-549 cells; BT-549, Formula (III) 100 nM alone (Table 9)) was 68.8% and the inhibition at 0.1 µM (BT-549 cells; BT-549, Formula (III) 100 nM alone (Table 10)) was 90.8%. The inhibition at 0.12 µM (BT-549 cells; BT-549, Formula (III) 120 nM alone (Table 7)) was 75.5%, the inhibition at 0.12 µM (BT-549 cells; BT-549, Formula (III) 120 nM alone) was 75.5% and the inhibition at 0.18 µM (BT-549 cells; BT-549, Formula (III) 180 nM alone (Table 7)) was 63.7%. For the same compound, the inhibition at 0.18 µM (BT-549 cells; BT-549, Formula (III) 180 nM alone) was 63.7%, the inhibition at 0.2 µM (BT-549 cells; BT-549, Formula (III) 200 nM alone (Table 8)) was 98.5% and the inhibition at 0.2 µM (BT-549 cells; BT-549, Formula (III) 200 nM alone (Table 9)) was 72.1%. For the same compound, the inhibition at 0.2 µM (BT-549 cells; BT-549, Formula (III) 200 nM alone (Table 10)) was 71.4%, the inhibition at 0.24 µM (BT-549 cells; BT-549, Formula (III) 240 nM alone (Table 7)) was 45% and the inhibition at 0.24 µM (BT-549 cells; BT-549, Formula (III) 240 nM alone) was 45%. For the same compound, the inhibition at 0.26 µM (BT-549 cells; BT-549, Formula (III) 260 nM alone (Table 8)) was 92.9%, the inhibition at 0.3 µM (BT-549 cells; BT-549, Formula (III) 300 nM alone (Table 7)) was 31.9% and the inhibition at 0.3 µM (BT-549 cells; BT-549, Formula (III) 300 nM alone (Table 8)) was 78%. The inhibition at 0.3 µM (BT-549 cells; BT-549, Formula (III) 300 nM alone (Table 9)) was 55.9%, the inhibition at 0.3 µM (BT-549 cells; BT-549, Formula (III) 300 nM alone (Table 10)) was 62.8% and the inhibition at 0.3 µM (BT-549 cells; BT-549, Formula (III) 300 nM alone) was 31.9%. For the same compound, the inhibition at 0.38 µM (BT-549 cells; BT-549, Formula (III) 380 nM alone (Table 8)) was 75.8%, the inhibition at 0.4 µM (BT-549 cells; BT-549, Formula (III) 400 nM alone (Table 9)) was 36.3% and the inhibition at 0.4 µM (BT-549 cells; BT-549, Formula (III) 400 nM alone (Table 10)) was 38.5%. The viability at 0.1 µM (MDA-MB-231 cells; MDA-MB-231, Formula (III) 100 nM alone (Table 4)) was 56.4%, the viability at 0.1 µM (MDA-MB-231 cells; MDA-MB-231, Formula (III) 100 nM alone (Table 5)) was 62.5% and the viability at 0.12 µM (MDA-MB-231 cells; MDA-MB-231, Formula (III) 120 nM alone (Table 2)) was 63.8%. For the same compound, the viability at 0.12 µM (MDA-MB-231 cells; MDA-MB-231, Formula (III) 120 nM alone) was 63.8%, the viability at 0.18 µM (MDA-MB-231 cells; MDA-MB-231, Formula (III) 180 nM alone (Table 2)) was 49.8% and the viability at 0.18 µM (MDA-MB-231 cells; MDA-MB-231, Formula (III) 180 nM alone) was 49.8%. For the same compound, the viability at 0.2 µM (MDA-MB-231 cells; MDA-MB-231, Formula (III) 200 nM alone (Table 3)) was 60.3%, the viability at 0.2 µM (MDA-MB-231 cells; MDA-MB-231, Formula (III) 200 nM alone (Table 4)) was 56.4% and the viability at 0.2 µM (MDA-MB-231 cells; MDA-MB-231, Formula (III) 200 nM alone (Table 5)) was 46.9%. The viability at 0.24 µM (MDA-MB-231 cells; MDA-MB-231, Formula (III) 240 nM alone (Table 2)) was 38.2%, the viability at 0.24 µM (MDA-MB-231 cells; MDA-MB-231, Formula (III) 240 nM alone) was 38.2% and the viability at 0.26 µM (MDA-MB-231 cells; MDA-MB-231, Formula (III) 260 nM alone (Table 3)) was 54.5%. It also gave a viability at 0.3 µM (MDA-MB-231 cells; MDA-MB-231, Formula (III) 300 nM alone (Table 2)) of 28.1%, a viability at 0.3 µM (MDA-MB-231 cells; MDA-MB-231, Formula (III) 300 nM alone (Table 3)) of 49.4% and a viability at 0.3 µM (MDA-MB-231 cells; MDA-MB-231, Formula (III) 300 nM alone (Table 4)) of 40.2%. It also gave a viability at 0.3 µM (MDA-MB-231 cells; MDA-MB-231, Formula (III) 300 nM alone (Table 5)) of 40.5%, a viability at 0.3 µM (MDA-MB-231 cells; MDA-MB-231, Formula (III) 300 nM alone) of 28.1% and a viability at 0.38 µM (MDA-MB-231 cells; MDA-MB-231, Formula (III) 380 nM alone (Table 3)) of 36.9%. It also gave a viability at 0.4 µM (MDA-MB-231 cells; MDA-MB-231, Formula (III) 400 nM alone (Table 4)) of 35.3% and a viability at 0.4 µM (MDA-MB-231 cells; MDA-MB-231, Formula (III) 400 nM alone (Table 5)) of 33.7%.
